Values quoted from earlier work as cited in US11759449B2, “Methods for reducing oxidative effects of free radicals” (Hugg LLC, priority 2021, dated 2023).

Assays:
[1] = background, refs (2, 3)
[2] = background, refs (2, 3); remark: listed apart in the source

bioavailability [1]: poor | solubility [2]: poor
Compound: Oc1ccc(C=Cc2cc(O)cc(O)c2)cc1 [resveratrol]
